The subject of series [1] is B16-F10. Description: Downregulation of PARP1 expression in mouse B16-F10 cells at 2 uM incubated for 24 hrs by Western blot analysis. Format: functional, cell-based. In general terms: In western blotting, separated proteins are transferred to a membrane and probed.
Series [2] relates to 4T1. The series can be described thus: Downregulation of PARP1 expression in mouse 4T1 cells at 2 uM incubated for 24 hrs by Western blot analysis. Format: functional, cell-based.
The subject of series [3] is B16-F10. Description: Induction of DNA damage in mouse B16-F10 cells assessed as increase in gamma-H2AX expression at 2 uM incubated for 24 hrs by Western blot analysis. In kind it is functional, cell-based.
Series [4] deals with 4T1. Description: Induction of DNA damage in mouse 4T1 cells assessed as increase in gamma-H2AX expression at 2 uM incubated for 24 hrs by Western blot analysis. In kind it is functional, cell-based.
The test system of series [5] is 4T1. The series can be described thus: Antitumor activity against mouse 4T1 cells implanted in female BALB/c mouse model assessed as tumor growth inhibition administrated orally as once daily dose via gavage for 14 days relative to control. As to conditions: route po; time 14 day. Format: functional.
A short description of series [6]: Toxicity in female BALB/c mouse model implanted with mouse 4T1 cells assessed as effect on body weight administrated orally as once daily dose via gavage for 14 days. As to conditions: in vivo, po, 336 h, time 14 day.
Series [7] concerns 4T1. Description: Antitumor activity against mouse 4T1 cells implanted in female BALB/c mouse model assessed as decrease in PAPR1 expression in tumor administrated orally as once daily dose via gavage for 14 days by Western blot analysis. Format: functional, cell-based. As to conditions: route po, time 14.0 day.
Series [8] has as its system 4T1. The series can be described thus: Antitumor activity against mouse 4T1 cells implanted in female BALB/c mouse model assessed as induction of DNA damage by measuring increase in gamma-H2AX expression in tumor administrated orally as once daily dose via gavage for 14 days by Western blot analysis. In kind it is functional, cell-based. As to conditions: route po, time 14.0 day.

In series [9] the test system is B16-F10. Description: Antitumor activity against mouse B16-F10 cells implanted in male C57BL/6 mouse model assessed as tumor growth inhibition at 20 mg/kg, po administered once daily via gavage for 14 days relative to control. Format: functional. As to conditions: B16-F10, 336 h, time 14 day, read-out: TGI.
Series [10] can be described thus: Oral bioavailability in male C57BL/6 mouse at 20 mg/kg. In kind it is ADME, organism-based. As to conditions: in vivo.
Series [11] deals with Mus musculus. The series can be described thus: Immunomodulatory activity in male C57BL/6 mouse model implanted with mouse B16-F10 cells assessed as increase in CD3+ CD4+ T cells in tumor at 20 mg/kg, po administered once daily for 14 days by flow cytometric analysis (reference value: 3.1 %). As to conditions: time 14 day. Format: functional.
Series [12] has as its system Mus musculus. The series can be described thus: Immunomodulatory activity in male C57BL/6 mouse model implanted with mouse B16-F10 cells assessed as increase in CD3+ CD8+ T cells in tumor at 20 mg/kg, po administered once daily for 14 days by flow cytometric analysis (reference value: 3.2 %). As to conditions: time 14 day. In kind it is functional.
For series [13], the target named is T1, Histone deacetylase 3 (Mus musculus) (UniProt O88895).
T1 sequence (whole entry): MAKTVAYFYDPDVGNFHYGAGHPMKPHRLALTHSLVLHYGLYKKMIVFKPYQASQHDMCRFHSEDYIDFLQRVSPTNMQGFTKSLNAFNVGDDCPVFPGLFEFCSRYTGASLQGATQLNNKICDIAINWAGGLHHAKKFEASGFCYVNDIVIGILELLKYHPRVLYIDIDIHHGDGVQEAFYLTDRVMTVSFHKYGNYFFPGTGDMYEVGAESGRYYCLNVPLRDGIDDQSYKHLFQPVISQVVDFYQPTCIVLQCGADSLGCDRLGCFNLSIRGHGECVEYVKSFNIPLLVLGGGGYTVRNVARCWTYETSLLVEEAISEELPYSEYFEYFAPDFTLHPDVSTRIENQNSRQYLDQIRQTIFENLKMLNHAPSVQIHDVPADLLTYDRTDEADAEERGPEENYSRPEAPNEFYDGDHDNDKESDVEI
The series can be described thus: In vivo inhibition of HDAC3 in male C57BL/6 mouse model implanted with mouse B16-F10 cells assessed as increase in acetylated histone H3 level in tumor at 20 mg/kg, po administered once daily via gavage for 14 days by DAPI staining based immunofluorescence analysis. Format: functional, organism-based. As to conditions: time 14.0 day.

Series [14] relates to Mus musculus. The series can be described thus: In vivo induction of PD-L1 degradation in male C57BL/6 mouse model implanted with mouse B16-F10 cells assessed as decrease in PD-L1 protein expression in tumor at 20 mg/kg, po administered once daily via gavage for 14 days by DAPI staining based immunofluorescence analysis. Format: functional, organism-based. As to conditions: time 14.0 day.

For series [15], the target named is T1, Histone deacetylase 3 (Mus musculus). The series can be described thus: Inhibition of HDAC3 in mouse B16-F10 cells assessed as increase in histone H3 acetylation level at 5 to 20 uM incubated for 24 hrs by Western blot analysis. Format: cell-based. As to conditions: dose 5-20 µM.
Series [16] shares this target. Description: Inhibition of HDAC3 in mouse 4T1 cells assessed as increase in histone H3 acetylation level at 5 to 20 uM incubated for 24 hrs by Western blot analysis. Format: cell-based. As to conditions: dose 5-20 µM.
Series [17] has as its system Mus musculus. Description: Immunomodulatory activity in male C57BL/6 mouse model implanted with mouse B16-F10 cells assessed as increase in CD3+ CD4+ T cells in tumor at 50 mg/kg, po administered once daily for 14 days by flow cytometric analysis (reference value: 3.1 %). As to conditions: time 14 day. In kind it is functional. In general terms: In flow cytometry, cells or beads pass a laser one at a time.

For series [18], the system named is Mus musculus. Description: Immunomodulatory activity in male C57BL/6 mouse model implanted with mouse B16-F10 cells assessed as increase in CD3+ CD8+ T cells in tumor at 50 mg/kg, po administered once daily for 14 days by flow cytometric analysis (reference value: 3.2 %). In kind it is functional. As to conditions: time 14 day.
The target of series [19] is T1, Histone deacetylase 3 (Mus musculus). Description: In vivo inhibition of HDAC3 in male C57BL/6 mouse model implanted with mouse B16-F10 cells assessed as increase in acetylated histone H3 level at 50 mg/kg, po administered once daily via gavage for 14 days by Western blot analysis. In kind it is functional, organism-based. As to conditions: time 14.0 day.
In series [20] the test system is Mus musculus. The series can be described thus: Effect on acetylated alpha-tubulin level in male C57BL/6 mouse tumor implanted with mouse B16-F10 cells at 50 mg/kg, po administered once daily via gavage for 14 days by Western blot analysis. Format: functional, organism-based. As to conditions: time 14.0 day.
Series [21] has as its target T1, Histone deacetylase 3 (Mus musculus). Description: In vivo inhibition of HDAC3 in male C57BL/6 mouse model implanted with mouse B16-F10 cells assessed as increase in acetylated histone H3 level in tumor at 50 mg/kg, po administered once daily via gavage for 14 days by DAPI staining based immunofluorescence analysis. Format: functional, organism-based. As to conditions: time 14.0 day.

The next series addresses Histone deacetylase 3 (Homo sapiens, UniProt O15379). As to conditions: dose 500.0 nM, time 3.0 hrs.

The source made the active and inactive calls. The calls are words filed in the database; no cut-off is given here.

The results in this text go back to ChEMBL document CHEMBL6096732 (J Med Chem, 2025).

Sequence of Histone deacetylase 3 (O15379 whole entry): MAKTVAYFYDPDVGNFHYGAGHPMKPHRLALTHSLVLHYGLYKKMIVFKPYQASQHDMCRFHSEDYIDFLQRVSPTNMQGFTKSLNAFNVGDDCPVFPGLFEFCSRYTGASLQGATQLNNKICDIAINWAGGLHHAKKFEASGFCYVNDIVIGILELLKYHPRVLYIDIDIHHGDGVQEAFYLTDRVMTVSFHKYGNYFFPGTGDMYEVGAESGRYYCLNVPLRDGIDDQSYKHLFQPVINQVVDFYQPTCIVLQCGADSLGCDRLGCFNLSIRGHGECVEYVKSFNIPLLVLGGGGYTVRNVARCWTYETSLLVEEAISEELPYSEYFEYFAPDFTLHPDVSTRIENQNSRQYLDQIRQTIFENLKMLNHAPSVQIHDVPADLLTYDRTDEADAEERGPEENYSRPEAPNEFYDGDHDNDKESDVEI

With `O=C(c1cc(Cc2n[nH]c(=O)c3ccccc23)ccc1F)N1CCN(C(=O)C2CC2)CC1` [OLAPARIB], the outcome with B16-F10 [1], in the series on 4T1 [2], in the series on B16-F10 [3], in the series with 4T1 [4], with 4T1 [7] and in the series on 4T1 [8] was Active. The TGI (commonly the reduction of tumour growth relative to the control group) in the series on 4T1 [5] amounted to 36%. In addition, the Activity result in series [6] is given as “Non-toxic”.
Regarding `Cc1c(COc2cc(OCc3cccc(C#N)c3)c(CNC(C)(C)C(=O)O)cc2Cl)cccc1-c1ccccc1`, in the series on B16-F10 [9], the inhibition in vivo at 20 mg/kg worked out at 37%. The bioavailability (as a rule, dose-corrected exposure relative to a reference, in per cent) in series [10] was under 5%. For the same compound, the Activity with Mus musculus [11] and with Mus musculus [12] was 27% in each case. Also, the inhibition (in general, how much of the control response was suppressed) in series [13] was “inactive”. Further, in the series with Mus musculus [14], the result was Active.
As for `O=C(CCCCCCC(=O)Nc1ccccc1)NO` [VORINOSTAT], the inhibition entry in [15], in series [16], in series [19] and in series [21] was “Active” in each case. In addition, the Activity in the series with Mus musculus [17] stood at 17%; in the series on Mus musculus [18], 23%. In addition, in the series with Mus musculus [20], the outcome was inactive. The compound further displayed an inhibition against Histone deacetylase 3 of 77%.
